Converted amounts (≈) assume the structure as drawn.
How the values were obtained:
[1] = target: T1, Tyrosine-protein kinase JAK1 (Homo sapiens, UniProt P23458)
[2] = Selectivity ratio of Ki for JAK2 kinase domain to Ki for JAK1 kinase domain
[3] = target: T1, Tyrosine-protein kinase JAK1; format: cell-based, TF-1
Cytochrome P450 2D6 = Cytochrome P450 2D6 (Homo sapiens, UniProt P10635); assay: Inhibition of CYP2D6; format: ADME
[4] = target: Leucine-rich repeat serine/threonine-protein kinase 2 (Homo sapiens) (UniProt Q5S007); assay: Inhibition of LRRK2 at 0.1 uM
Chain of Leucine-rich repeat serine/threonine-protein kinase 2 (Homo sapiens) (Q5S007 whole entry): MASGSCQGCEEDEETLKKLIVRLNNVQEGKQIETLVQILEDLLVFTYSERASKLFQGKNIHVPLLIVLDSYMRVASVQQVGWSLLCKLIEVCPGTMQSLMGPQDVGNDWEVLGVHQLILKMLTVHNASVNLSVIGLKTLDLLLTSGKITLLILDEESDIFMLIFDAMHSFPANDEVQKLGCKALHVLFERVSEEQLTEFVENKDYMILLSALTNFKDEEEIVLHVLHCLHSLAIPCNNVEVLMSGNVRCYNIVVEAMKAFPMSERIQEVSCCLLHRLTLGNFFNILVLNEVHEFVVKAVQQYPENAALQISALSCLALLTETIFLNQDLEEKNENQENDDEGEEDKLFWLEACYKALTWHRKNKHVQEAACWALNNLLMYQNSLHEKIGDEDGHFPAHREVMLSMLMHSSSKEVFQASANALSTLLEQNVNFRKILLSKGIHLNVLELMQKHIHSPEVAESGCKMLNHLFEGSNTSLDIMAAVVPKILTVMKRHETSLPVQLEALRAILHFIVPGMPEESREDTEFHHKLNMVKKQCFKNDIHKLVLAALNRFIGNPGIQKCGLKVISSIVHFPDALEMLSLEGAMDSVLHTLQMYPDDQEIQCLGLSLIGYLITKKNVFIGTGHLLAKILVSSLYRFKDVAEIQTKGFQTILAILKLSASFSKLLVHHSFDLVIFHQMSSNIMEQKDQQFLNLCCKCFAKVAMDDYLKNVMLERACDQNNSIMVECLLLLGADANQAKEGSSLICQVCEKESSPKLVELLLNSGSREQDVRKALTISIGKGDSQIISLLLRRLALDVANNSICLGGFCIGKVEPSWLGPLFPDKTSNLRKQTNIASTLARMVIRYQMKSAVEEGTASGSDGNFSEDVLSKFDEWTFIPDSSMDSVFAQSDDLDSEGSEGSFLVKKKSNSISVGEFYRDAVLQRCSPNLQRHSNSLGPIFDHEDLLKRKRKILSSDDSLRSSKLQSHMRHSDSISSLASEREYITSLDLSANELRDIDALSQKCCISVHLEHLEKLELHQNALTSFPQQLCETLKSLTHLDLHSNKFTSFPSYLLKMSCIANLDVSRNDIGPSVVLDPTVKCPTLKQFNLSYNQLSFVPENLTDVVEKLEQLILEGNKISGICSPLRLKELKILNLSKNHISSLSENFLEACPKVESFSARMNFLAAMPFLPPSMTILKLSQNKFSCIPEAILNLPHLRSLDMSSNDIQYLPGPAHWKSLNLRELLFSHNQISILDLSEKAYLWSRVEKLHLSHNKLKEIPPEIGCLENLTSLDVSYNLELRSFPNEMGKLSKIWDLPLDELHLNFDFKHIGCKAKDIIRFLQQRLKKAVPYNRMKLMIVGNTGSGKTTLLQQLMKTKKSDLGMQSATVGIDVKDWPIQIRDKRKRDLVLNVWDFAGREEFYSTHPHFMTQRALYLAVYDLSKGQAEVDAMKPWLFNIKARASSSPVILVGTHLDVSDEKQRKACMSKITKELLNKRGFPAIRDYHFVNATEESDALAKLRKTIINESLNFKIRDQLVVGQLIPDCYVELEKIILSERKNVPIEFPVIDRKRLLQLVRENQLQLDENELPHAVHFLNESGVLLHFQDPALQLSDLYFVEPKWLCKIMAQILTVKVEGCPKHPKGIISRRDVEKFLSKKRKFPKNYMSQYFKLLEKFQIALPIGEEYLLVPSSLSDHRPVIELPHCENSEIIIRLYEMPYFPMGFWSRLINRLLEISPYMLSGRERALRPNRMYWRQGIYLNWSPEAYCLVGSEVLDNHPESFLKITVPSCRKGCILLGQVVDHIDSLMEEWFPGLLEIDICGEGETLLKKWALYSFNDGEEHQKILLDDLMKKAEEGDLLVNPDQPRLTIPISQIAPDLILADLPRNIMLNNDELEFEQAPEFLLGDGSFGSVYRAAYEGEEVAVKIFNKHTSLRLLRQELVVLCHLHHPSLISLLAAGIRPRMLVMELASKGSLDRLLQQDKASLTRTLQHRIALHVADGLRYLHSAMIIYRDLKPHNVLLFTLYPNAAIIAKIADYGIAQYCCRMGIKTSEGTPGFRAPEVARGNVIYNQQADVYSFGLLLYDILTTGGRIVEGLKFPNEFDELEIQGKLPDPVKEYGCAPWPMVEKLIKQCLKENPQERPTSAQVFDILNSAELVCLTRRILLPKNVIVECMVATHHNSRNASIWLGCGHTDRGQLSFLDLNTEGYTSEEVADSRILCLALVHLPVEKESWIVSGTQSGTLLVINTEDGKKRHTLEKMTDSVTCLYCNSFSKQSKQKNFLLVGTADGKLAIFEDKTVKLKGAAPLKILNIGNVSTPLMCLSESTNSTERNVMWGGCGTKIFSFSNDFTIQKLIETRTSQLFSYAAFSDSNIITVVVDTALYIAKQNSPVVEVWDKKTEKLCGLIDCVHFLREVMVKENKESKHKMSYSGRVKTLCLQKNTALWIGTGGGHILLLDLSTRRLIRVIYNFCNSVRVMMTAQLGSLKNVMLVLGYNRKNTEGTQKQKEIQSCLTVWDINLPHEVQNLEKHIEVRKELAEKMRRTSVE

[5] = Half life in Sprague-Dawley rat at 0.4 mg/kg, iv administered as bolus dose; format: ADME, organism-based; parameters: dose 0.4 mg/kg, route intravenous; settings: in vivo
Cytochrome P450 1A2 = target: T2, Cytochrome P450 1A2 (Homo sapiens, UniProt P05177); assay: Inhibition of CYP1A2; format: ADME
T2 sequence (P05177 whole entry): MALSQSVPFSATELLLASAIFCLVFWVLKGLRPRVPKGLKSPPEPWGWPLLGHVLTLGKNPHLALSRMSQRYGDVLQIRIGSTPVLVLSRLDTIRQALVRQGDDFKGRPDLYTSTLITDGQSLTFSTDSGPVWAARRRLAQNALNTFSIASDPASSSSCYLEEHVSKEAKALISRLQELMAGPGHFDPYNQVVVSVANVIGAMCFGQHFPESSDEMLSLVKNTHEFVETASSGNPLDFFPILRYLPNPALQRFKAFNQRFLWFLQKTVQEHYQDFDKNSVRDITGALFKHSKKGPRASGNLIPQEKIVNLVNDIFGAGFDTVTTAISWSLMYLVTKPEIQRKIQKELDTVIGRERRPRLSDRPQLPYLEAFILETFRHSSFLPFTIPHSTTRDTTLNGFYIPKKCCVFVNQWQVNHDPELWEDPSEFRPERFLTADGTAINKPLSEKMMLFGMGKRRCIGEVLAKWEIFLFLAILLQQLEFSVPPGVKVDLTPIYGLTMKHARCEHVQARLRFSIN

Cytochrome P450 2C19 = Cytochrome P450 2C19 (Homo sapiens, UniProt P33261); assay: Inhibition of CYP2C19; format: ADME
Chain of Cytochrome P450 2C19 (P33261 whole entry): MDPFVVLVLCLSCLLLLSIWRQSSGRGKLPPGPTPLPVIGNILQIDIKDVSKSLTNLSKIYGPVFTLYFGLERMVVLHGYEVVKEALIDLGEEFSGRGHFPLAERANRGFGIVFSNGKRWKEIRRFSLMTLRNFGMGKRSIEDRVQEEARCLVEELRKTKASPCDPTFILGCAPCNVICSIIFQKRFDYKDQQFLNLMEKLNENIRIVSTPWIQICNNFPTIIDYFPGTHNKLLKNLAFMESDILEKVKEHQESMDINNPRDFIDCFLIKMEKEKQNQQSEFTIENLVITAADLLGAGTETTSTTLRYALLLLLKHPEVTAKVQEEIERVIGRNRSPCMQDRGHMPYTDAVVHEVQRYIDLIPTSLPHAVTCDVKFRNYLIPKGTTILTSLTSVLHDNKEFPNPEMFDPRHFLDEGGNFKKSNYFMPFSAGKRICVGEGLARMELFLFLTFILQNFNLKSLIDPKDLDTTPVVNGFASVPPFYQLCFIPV

[6] = Clearance in Sprague-Dawley rat at 0.4 mg/kg, iv administered as bolus dose; format: ADME, organism-based; parameters: dose 0.4 mg/kg, route intravenous; settings: in vivo
[7] = AUC in Sprague-Dawley rat at 2 mg/kg, po administered as suspension; format: ADME, organism-based; parameters: dose 2 mg/kg, route oral; settings: plasma
Cytochrome P450 3A4 = Cytochrome P450 3A4 (Homo sapiens, UniProt P08684); assay: Inhibition of CYP3A4; format: ADME
[8] = target: Macrophage colony-stimulating factor 1 receptor (Homo sapiens) (UniProt P07333); assay: Inhibition of CSF1R at 0.1 uM
Chain of Macrophage colony-stimulating factor 1 receptor (Homo sapiens) (P07333 whole entry): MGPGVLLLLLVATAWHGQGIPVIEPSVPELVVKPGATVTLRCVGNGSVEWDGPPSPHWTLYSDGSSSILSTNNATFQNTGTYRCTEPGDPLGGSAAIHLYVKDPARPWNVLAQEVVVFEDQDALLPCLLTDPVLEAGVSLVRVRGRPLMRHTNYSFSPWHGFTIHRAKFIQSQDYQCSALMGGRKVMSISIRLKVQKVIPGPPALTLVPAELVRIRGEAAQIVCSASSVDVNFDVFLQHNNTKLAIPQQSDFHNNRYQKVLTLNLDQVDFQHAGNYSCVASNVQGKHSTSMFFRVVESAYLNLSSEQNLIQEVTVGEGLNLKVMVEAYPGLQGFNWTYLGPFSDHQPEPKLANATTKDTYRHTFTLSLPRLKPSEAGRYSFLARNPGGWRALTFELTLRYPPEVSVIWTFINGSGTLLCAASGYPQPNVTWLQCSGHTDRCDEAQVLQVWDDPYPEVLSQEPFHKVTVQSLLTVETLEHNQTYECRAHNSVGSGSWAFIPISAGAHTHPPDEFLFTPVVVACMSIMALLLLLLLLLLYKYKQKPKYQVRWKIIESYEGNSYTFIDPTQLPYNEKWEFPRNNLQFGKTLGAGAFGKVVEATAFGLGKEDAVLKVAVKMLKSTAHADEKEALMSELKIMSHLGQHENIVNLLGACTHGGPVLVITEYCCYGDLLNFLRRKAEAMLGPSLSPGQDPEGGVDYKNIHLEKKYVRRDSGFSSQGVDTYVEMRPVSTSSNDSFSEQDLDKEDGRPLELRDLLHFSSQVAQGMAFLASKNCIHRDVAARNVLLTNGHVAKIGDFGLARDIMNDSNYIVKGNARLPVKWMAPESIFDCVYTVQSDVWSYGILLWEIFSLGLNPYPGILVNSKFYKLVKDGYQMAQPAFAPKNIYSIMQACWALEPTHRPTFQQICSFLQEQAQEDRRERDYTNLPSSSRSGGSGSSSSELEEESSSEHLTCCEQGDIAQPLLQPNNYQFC

[9] = Aqueous solubility of the compound; format: physicochemical; settings: buffer
[10] = Volume of distribution at steady state in Sprague-Dawley rat at 0.4 mg/kg, iv administered as bolus dose; format: ADME, organism-based; parameters: dose 0.4 mg/kg, route intravenous; settings: in vivo, read-out: Vdss
[11] = Oral bioavailability in Sprague-Dawley rat at 2 mg/kg administered as suspension; format: ADME, organism-based; settings: in vivo
Cytochrome P450 2C9 = Cytochrome P450 2C9 (Homo sapiens, UniProt P11712); assay: Inhibition of CYP2C9; format: ADME
[12] = Apparent permeability from apical to basal side of MDCK cells; format: ADME, cell-based, Canis lupus familiaris; settings: dog

T1 sequence (P23458 whole entry, the tested form may be a part): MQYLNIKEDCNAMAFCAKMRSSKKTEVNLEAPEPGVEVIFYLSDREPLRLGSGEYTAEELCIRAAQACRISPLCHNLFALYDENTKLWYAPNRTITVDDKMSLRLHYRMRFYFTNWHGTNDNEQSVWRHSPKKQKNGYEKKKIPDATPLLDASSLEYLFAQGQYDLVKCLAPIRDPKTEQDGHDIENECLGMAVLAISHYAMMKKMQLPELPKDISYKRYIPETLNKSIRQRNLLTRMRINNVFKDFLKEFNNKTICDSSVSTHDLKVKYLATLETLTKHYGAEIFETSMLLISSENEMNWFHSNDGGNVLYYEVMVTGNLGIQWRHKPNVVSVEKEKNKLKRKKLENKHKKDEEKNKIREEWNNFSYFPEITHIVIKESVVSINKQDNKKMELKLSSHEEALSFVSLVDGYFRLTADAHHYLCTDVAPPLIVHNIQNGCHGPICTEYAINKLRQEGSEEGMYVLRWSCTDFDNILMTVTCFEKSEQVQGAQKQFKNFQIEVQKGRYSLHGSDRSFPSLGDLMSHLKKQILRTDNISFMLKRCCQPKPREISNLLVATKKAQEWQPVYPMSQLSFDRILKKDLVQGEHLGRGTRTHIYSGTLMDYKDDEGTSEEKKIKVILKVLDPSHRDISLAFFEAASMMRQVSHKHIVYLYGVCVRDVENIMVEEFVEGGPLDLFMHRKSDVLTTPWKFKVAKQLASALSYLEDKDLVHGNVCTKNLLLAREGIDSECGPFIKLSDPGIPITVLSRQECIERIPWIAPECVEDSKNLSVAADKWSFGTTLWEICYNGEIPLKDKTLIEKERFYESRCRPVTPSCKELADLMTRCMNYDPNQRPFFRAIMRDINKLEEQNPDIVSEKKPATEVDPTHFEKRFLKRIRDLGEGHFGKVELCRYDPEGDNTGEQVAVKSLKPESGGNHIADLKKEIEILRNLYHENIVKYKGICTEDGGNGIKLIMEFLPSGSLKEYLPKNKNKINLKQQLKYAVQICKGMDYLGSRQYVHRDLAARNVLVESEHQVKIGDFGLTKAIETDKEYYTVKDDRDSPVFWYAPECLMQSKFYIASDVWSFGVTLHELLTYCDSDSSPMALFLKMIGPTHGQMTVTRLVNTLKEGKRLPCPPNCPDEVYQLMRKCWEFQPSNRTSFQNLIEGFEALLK

`CS(=O)(=O)NCc1nc2cnc3[nH]ccc3c2n1C1CC2CCC1O2` (racemic) gave a Ki [1] of 28 nM, a Ratio Ki [2] of 8 and an EC50 [3] of 4200 nM.
For `CC(=O)NCc1nc2cnc3[nH]ccc3c2n1C1CC2CCC1C2` (racemic), the Ki [1] was 3 nM, the Ratio Ki [2] was 8.4 and the EC50 [3] was 160 nM.
`N#CCCN1CCC(n2c(CC3CCCC3)nc3cnc4[nH]ccc4c32)CC1` gave a Ki [1] of 16 nM, a Ratio Ki [2] of 4.5 and an EC50 [3] of 2000 nM.
With `CCCc1nc2cnc3[nH]ccc3c2n1C1CCN(CCC#N)CC1` the Ki [1] was 4.6 nM, the Ratio Ki [2] was 2.1 and the EC50 [3] was 275 nM.
`N#CCCN1CCC(n2c(CC3CCCO3)nc3cnc4[nH]ccc4c32)CC1` (racemic) gave a Ki [1] of 24 nM, a Ratio Ki [2] of 1.5 and an EC50 [3] of 1300 nM.
`N#CCCN1CCC(n2c(CCC3CCCO3)nc3cnc4[nH]ccc4c32)CC1` (racemic) gave a Ki [1] of 8.7 nM, a Ratio Ki [2] of 5.4 and an EC50 [3] of 570 nM.
For `CS(=O)(=O)NCCc1nc2cnc3[nH]ccc3c2n1C1CC2CCC1C2` (racemic), the Ki [1] was 0.6 nM, the Ratio Ki [2] was 10 and the EC50 [3] was 50 nM.
In the case of `CS(=O)(=O)NCc1nc2cnc3[nH]ccc3c2n1[C@@H]1C[C@H]2CC[C@@H]1C2`, the IC50 (Cytochrome P450 2D6) is reported as > 10000 nM, the inhibition [4] is reported as > 50% and the half-life [5] is reported as 1.5 h. For the same compound, the IC50 (Cytochrome P450 1A2) was > 10000 nM, the IC50 (Cytochrome P450 2C19) was > 10000 nM and the clearance [6] was 33 mL/min/kg. The AUC [7] was 2.2 µM·h, the IC50 (Cytochrome P450 3A4) was > 10000 nM and the inhibition [8] was > 50%. For the same compound, the solubility [9] was 71 µM (≈ 25.5 µg/mL), the Vd [10] was 4 L/kg and the bioavailability [11] was 79%. For the same compound, the IC50 (Cytochrome P450 2C9) was > 10000 nM and the Papp A→B [12] was 8.2 ×10⁻⁶ cm/s.
For `CS(=O)(=O)NCCc1nc2cnc3[nH]ccc3c2n1C1CCN(CCC#N)CC1`, the Ki [1] was 1.7 nM, the Ratio Ki [2] was 7 and the EC50 [3] was > 6000 nM.
In the case of `CC(C)CS(=O)(=O)NCc1nc2cnc3[nH]ccc3c2n1C1CCN(CCC#N)CC1`, the Ki [1] is reported as 5.4 nM, the Ratio Ki [2] is reported as 11 and the EC50 [3] is reported as 1200 nM.
For `Cn1ccc(CCc2nc3cnc4[nH]ccc4c3n2C2CCN(CCC#N)CC2)n1`, the Ki [1] was 13 nM, the Ratio Ki [2] was 7.6 and the EC50 [3] was 2600 nM.
In the case of `CC(=O)NCc1nc2cnc3[nH]ccc3c2n1C1CCN(CCC#N)CC1`, the Ratio Ki [2] is reported as 5.4 and the EC50 [3] is reported as > 3800 nM.
For `CC(=O)NCCc1nc2cnc3[nH]ccc3c2n1C1CCCCC1`, the EC50 [3] was 210 nM.
`N#CCCN1CCC(n2c(C3CC3)nc3cnc4[nH]ccc4c32)CC1` showed a Ratio Ki [2] of 1.8 and an EC50 [3] of 160 nM.
With `N#CCCN1CCC(n2c(C3CCC3)nc3cnc4[nH]ccc4c32)CC1` the Ki [1] was 4.3 nM, the Ratio Ki [2] was 3.6 and the EC50 [3] was 430 nM.
In the case of `N#CCCN1CCC(n2c(CCn3cccn3)nc3cnc4[nH]ccc4c32)CC1`, the Ki [1] is reported as 14 nM, the Ratio Ki [2] is reported as 2.6 and the EC50 [3] is reported as 1800 nM.
For `CC(C)c1nc2cnc3[nH]ccc3c2n1C1CCN(CCC#N)CC1`, the Ki [1] was 9.1 nM, the Ratio Ki [2] was 4.2 and the EC50 [3] was 410 nM.
With `CC(=O)NCCc1nc2cnc3[nH]ccc3c2n1C1CCN(CCC#N)CC1` the Ki [1] was 3.7 nM, the Ratio Ki [2] was 5.6 and the EC50 [3] was > 6500 nM.
`CC(=O)NCc1nc2cnc3[nH]ccc3c2n1C1CCN(CC(F)(F)F)CC1` showed a Ki [1] of 12 nM, a Ratio Ki [2] of 6.7 and an EC50 [3] of 1500 nM.
`N#CCCN1CCC(n2c(CC3CCOCC3)nc3cnc4[nH]ccc4c32)CC1` gave a Ki [1] of 43 nM, a Ratio Ki [2] of 4.8 and an EC50 [3] of 2600 nM.
Work on `CCOC(=O)NCc1nc2cnc3[nH]ccc3c2n1C1CCN(CCC#N)CC1` yielded a Ki [1] of 8.4 nM, a Ratio Ki [2] of 3.6 and an EC50 [3] of 625 nM.
